Laboratory results taken from patent US6939963B2, “Method for the preparation of selectively-substituted corroles and new substituted corroles” (Technion Research and Development Foundation Ltd., priority 2001, dated 2005).

Legend:
[1] = Solubility in water of compound 3 and its metal complexes; assay type: physicochemical
Excerpt: (§1) The most variable compounds of the invention are 2 and 3, because of the easy substitution of the chloride in the —SO2Cl functions of 2 and the large variety of metal ions that can be inserted into either 2 or 3. In the present example, metallation of compound 3 is described. Generally, the same methods that were developed for corrole 1 worked for 3 as well: GaCl3/pyridine for obtaining compound 15, the gallium(III) complex of 3; Mn(OAc)2/DMF for obtaining compound 16, the manganese(III) complex of 3; Co(OAc)2/PPh3/EtOH for obtaining compound 17, the (triphenylphosphine)cobalt(III) complex of 3; SnCl2.2H2O/DMF for obtaining compound 18, the (chloro)tin(IV) complex of 3; and CrCl2/pyridine for obtaining compound 19, the (bis-pyridine)chromium(III) complex of 3.

[2] = Aggregation in solution judged from linear plots of UV-vis absorbance (ε determination); assay type: physicochemical; conditions: low concentrations relevant for UV-vis measurements, 10^−4-10^−6 M
Excerpt: as §1

O=S(=O)(O)C1=Cc2nc1c(-c1c(F)c(F)c(F)c(F)c1F)c1ccc([nH]1)c(-c1c(F)c(F)c(F)c(F)c1F)c1ccc([nH]1)c(-c1c(F)c(F)c(F)c(F)c1F)c1cc(S(=O)(=O)O)c2[nH]1 [Compound 3, 5,10,15-Tris(pentafluorophenyl)-2,17-bis(sulfonic acid)-corrole]
solubility in water [1]: soluble in water | aggregation (linear plots obtained for elucidating the ε values) [2]: absence of aggregation
